Results published in BigSolDB 2.1.

O=c1c2ccccc2sc2ccccc12
Conditions	solubility (mole fraction)
in 1,4-dioxane, 292.15 K	0.00919
in 1,4-dioxane, 297.05 K	0.01
in 1,4-dioxane, 302.05 K	0.0109
in 1,4-dioxane, 305.05 K	0.0115
in 1,4-dioxane, 307.95 K	0.0121
in 1,4-dioxane, 311.15 K	0.0127
in 1,4-dioxane, 313.85 K	0.0134
in 1,4-dioxane, 316.85 K	0.0141
in 1,4-dioxane, 319.35 K	0.0146
in 1,4-dioxane, 322.55 K	0.0153
in 1,4-dioxane, 326.55 K	0.0163
in 1,4-dioxane, 331.55 K	0.0175
in 1,4-dioxane, 335.95 K	0.0186
in 2-butanone, 292.15 K	0.00309
in 2-butanone, 297.05 K	0.00398
in 2-butanone, 301.95 K	0.00441
in 2-butanone, 306.65 K	0.00519
in 2-butanone, 311.25 K	0.00604
in 2-butanone, 316.15 K	0.00696
in 2-butanone, 321.25 K	0.00805
in 2-butanone, 326.55 K	0.00947
in 2-butanone, 331.55 K	0.0111
in 2-butanone, 335.95 K	0.0124
in THF, 292.15 K	0.00867
in THF, 297.05 K	0.0101
in THF, 301.95 K	0.0114
in THF, 306.65 K	0.0129
in THF, 311.25 K	0.0147
in THF, 316.15 K	0.0167
in THF, 321.25 K	0.0189
in THF, 326.55 K	0.0213
in THF, 331.55 K	0.024
in THF, 335.95 K	0.0274
in acetone, 292.15 K	0.00191
in acetone, 297.05 K	0.00225
in acetone, 302.05 K	0.00265
in acetone, 305.05 K	0.00293
in acetone, 307.95 K	0.00317
in acetone, 311.15 K	0.00356
in acetone, 313.85 K	0.00389
in acetone, 316.85 K	0.00407
in acetone, 319.35 K	0.00456
in acetone, 322.55 K	0.00492
in acetone, 326.55 K	0.0055
in acetonitrile, 292.15 K	0.000466
in acetonitrile, 297.05 K	0.000614
in acetonitrile, 302.05 K	0.000806
in acetonitrile, 305.05 K	0.000947
in acetonitrile, 307.95 K	0.0011
in acetonitrile, 311.15 K	0.00132
in acetonitrile, 313.85 K	0.00147
in acetonitrile, 316.85 K	0.0017
in acetonitrile, 319.35 K	0.00192
in acetonitrile, 322.55 K	0.00225
in acetonitrile, 326.55 K	0.0027
in acetonitrile, 331.55 K	0.00336
in acetonitrile, 335.95 K	0.00411
in dichloromethane, 292.15 K	0.00692
in dichloromethane, 297.05 K	0.00849
in dichloromethane, 301.95 K	0.00981
in dichloromethane, 306.65 K	0.0114
in dichloromethane, 311.25 K	0.0134
in ethanol, 292.15 K	0.000194
in ethanol, 297.05 K	0.000289
in ethanol, 302.05 K	0.000428
in ethanol, 305.05 K	0.000544
in ethanol, 307.95 K	0.000657
in ethanol, 311.15 K	0.000847
in ethanol, 313.85 K	0.00103
in ethanol, 316.85 K	0.00126
in ethanol, 319.35 K	0.00153
in ethanol, 322.55 K	0.00189
in ethanol, 326.55 K	0.00247
in ethanol, 331.55 K	0.00342
in ethanol, 335.95 K	0.00452
in ethyl acetate, 292.15 K	0.00273
in ethyl acetate, 297.05 K	0.00319
in ethyl acetate, 302.05 K	0.00371
in ethyl acetate, 305.05 K	0.00405
in ethyl acetate, 307.95 K	0.00444
in ethyl acetate, 311.15 K	0.00485
in ethyl acetate, 313.85 K	0.00525
in ethyl acetate, 316.85 K	0.00565
in ethyl acetate, 319.35 K	0.00608
in ethyl acetate, 322.55 K	0.00655
in ethyl acetate, 326.55 K	0.00732
in ethyl acetate, 331.55 K	0.0083
in ethyl acetate, 335.95 K	0.00924
in isopropanol, 292.15 K	0.000395
in isopropanol, 297.05 K	0.000539
in isopropanol, 302.05 K	0.000733
in isopropanol, 305.05 K	0.000877
in isopropanol, 307.95 K	0.00106
in isopropanol, 311.15 K	0.00126
in isopropanol, 313.85 K	0.00145
in isopropanol, 316.85 K	0.00172
in isopropanol, 319.35 K	0.00198
in isopropanol, 322.55 K	0.00234
in isopropanol, 326.55 K	0.00288
in isopropanol, 331.55 K	0.00371
in isopropanol, 335.95 K	0.00461
in methanol, 292.15 K	0.000163
in methanol, 297.05 K	0.000225
in methanol, 301.95 K	0.000284
in methanol, 306.65 K	0.000316
in methanol, 311.25 K	0.0004
in methanol, 316.15 K	0.000469
in methanol, 321.25 K	0.00062
in methanol, 326.55 K	0.000788
in methanol, 331.55 K	0.000921
in methanol, 335.95 K	0.00106
in n-propanol, 292.15 K	0.000546
in n-propanol, 297.05 K	0.00061
in n-propanol, 301.95 K	0.000782
in n-propanol, 306.65 K	0.000892
in n-propanol, 311.25 K	0.00114
in n-propanol, 316.15 K	0.00134
in n-propanol, 321.25 K	0.00175
in n-propanol, 326.55 K	0.00214
in n-propanol, 331.55 K	0.00251
in n-propanol, 335.95 K	0.00317
in toluene, 292.15 K	0.00373
in toluene, 297.05 K	0.00456
in toluene, 302.05 K	0.00554
in toluene, 305.05 K	0.00624
in toluene, 307.95 K	0.0069
in toluene, 311.15 K	0.00782
in toluene, 313.85 K	0.00858
in toluene, 316.85 K	0.0096
in toluene, 319.35 K	0.0103
in toluene, 322.55 K	0.0116
in toluene, 326.55 K	0.0134
in toluene, 331.55 K	0.0158
in toluene, 335.95 K	0.0181
